Laboratory results reported in patent US12637413B2, “Fatty acid amide hydrolase (FAAH) cleavable prodrugs of thyromimetics and combination with peripherally restricted FAAH inhibitors” (Autobahn Therapeutics, Inc., priority 2021, dated 2026).

Target: T1, recombinant human FAAH (rhFAAH) (Homo sapiens, UniProt O00519)
T1 construct: purchased Cayman Chemical (Ann Arbor, MI, USA)
T1 sequence (O00519 1-579): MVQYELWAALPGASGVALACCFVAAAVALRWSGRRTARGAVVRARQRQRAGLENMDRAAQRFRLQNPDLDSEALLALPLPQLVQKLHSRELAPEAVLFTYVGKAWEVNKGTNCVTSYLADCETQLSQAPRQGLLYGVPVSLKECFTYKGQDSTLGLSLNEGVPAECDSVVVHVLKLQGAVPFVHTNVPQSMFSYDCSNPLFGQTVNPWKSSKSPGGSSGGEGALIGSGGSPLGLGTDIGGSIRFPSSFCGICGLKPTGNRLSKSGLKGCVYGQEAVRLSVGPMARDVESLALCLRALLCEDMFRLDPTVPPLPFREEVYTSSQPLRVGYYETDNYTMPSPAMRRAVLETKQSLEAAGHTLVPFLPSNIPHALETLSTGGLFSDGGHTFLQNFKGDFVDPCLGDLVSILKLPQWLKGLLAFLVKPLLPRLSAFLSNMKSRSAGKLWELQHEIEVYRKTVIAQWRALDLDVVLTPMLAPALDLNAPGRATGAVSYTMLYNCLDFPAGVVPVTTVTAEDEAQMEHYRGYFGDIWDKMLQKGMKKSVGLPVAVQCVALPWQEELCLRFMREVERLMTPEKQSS
Assay: FAAH substrate evaluation (acid metabolite formation)
Type: biochemical
Settings: observed rate constant for acid metabolite formation; 0.5 ng/μL rhFAAH, 1 μM test compound, room temperature, 0-60 minutes
Method: Purified recombinant human FAAH (rhFAAH) was purchased from Cayman Chemical (Ann Arbor, MI, USA). The total volume for each incubation was 400 μL containing a final 0.5 ng/μL rhFAAH, 1 μM test compound, 1.25% ethanol or 1 μM PF-3845 (FAAH inhibitor), and 0.1% bovine serum albumin in Tris-EDTA buffer at pH 8.0). The positive control was LL-341001. The incubation was conducted at the room temperature. At 0, 5, 15, 30 and 60 minutes, an aliquot of 30 μL reaction mixtures was removed and mixed with 300 μL acetonitrile containing 5 ng/mL terfenadine and 10 ng/mL tolbutamide as internal standards to quench the reaction. The resulting mixture was centrifuged at 4000 rpm, 4° C. for 15 minutes, and 100 μL supernatant was ready for LC-MS/MS analysis to measure the formation of acid metabolite.
Acquity Ultra Performance LC system from Waters was used for sample analysis. The chromatography was performed on a reverse phase Kinetex 2.6 μm C18 column, 2.1×30 mm, 100 Å. The mobile phase A comprised of 0.1% formic acid in water and mobile phase B comprised of 0.1% formic acid in acetonitrile with a 2-min run time at the flow rate of 0.8 mL/min for the acid metabolite from positive control or a 1.5 min run time at the flow rate of 0.9 mL/min for the acid metabolite of test compounds. The mass spectrometer (API-5500 and API Q Trap 4000 Applied Biosystems/MDS SCIEX Instruments, Framingham, MA, USA) was operated under ESI positive or negative ion MRM mode.
The formation of acid metabolite was monitored and quantified using one calibration point of 1 μM. The observed rate constant (ke) for the acid metabolite formation was calculated by plotting the metabolite concentration versus time of incubation with the slope being ke and is shown in Table 1.

| Compound | ke |
| --- | --- |
| CC(C)c1cc(Cc2c(Cl)cc(OCC(=O)NCc3ccccc3)cc2Cl)ccc1O [Compound 22] | A (ke is more than or equal to 0.1) |
| CC(C)c1cc(Cc2c(Cl)cc(OCC(=O)N[C@@H]3C[C@@H]3F)cc2Cl)ccc1O [Compound 111, 2-(3,5-dichloro-4-(4-hydroxy-3-isopropylbenzyl)phenoxy)-N-((1R,2S)-2-fluorocyclopropyl)acetamide] | A (ke is more than or equal to 0.1) |
| CC(C)c1cc(Cc2c(Cl)cc(OCC(=O)N(C)CC(F)F)cc2Cl)ccc1O [Compound 132, 2-(3,5-dichloro-4-(4-hydroxy-3-isopropylbenzyl)phenoxy)-N-(2,2-difluoroethyl)-N-methylacetamide] | B (ke is less than 0.1 and more than 0) |
| CC(C)c1cc(Cc2c(Cl)cc(OCC(=O)Nc3cccnn3)cc2Cl)ccc1O [Compound 104, 2-(3,5-dichloro-4-(4-hydroxy-3-isopropylbenzyl)phenoxy)-N-(pyridazin-3-yl)acetamide] | A (ke is more than or equal to 0.1) |
| CC(C)c1cc(Cc2c(Cl)cc(OCC(=O)NO)cc2Cl)ccc1O [Compound 26] | A (ke is more than or equal to 0.1) |
| CC(C)c1cc(Cc2c(Cl)cc(OCC(=O)NCCN)cc2Cl)ccc1O [Compound 12] | B (ke is less than 0.1 and more than 0) |
| CCN(C)C(=O)COc1cc(Cl)c(Cc2ccc(O)c(C(C)C)c2F)c(Cl)c1 [Compound 34] | C (ke is 0) |
| COc1ccc(NC(=O)COc2cc(Cl)c(Cc3ccc(O)c(C(C)C)c3)c(Cl)c2)nn1 [Compound 113, 2-(3,5-dichloro-4-(4-hydroxy-3-isopropylbenzyl)phenoxy)-N-(6-methoxypyridazin-3-yl)acetamide] | A (ke is more than or equal to 0.1) |
| CC(C)c1cc(Cc2c(Cl)cc(OCC(=O)N3CCC3)cc2Cl)ccc1O [Compound 118, 1-(azetidin-1-yl)-2-(3,5-dichloro-4-(4-hydroxy-3-isopropylbenzyl)phenoxy)ethan-1-one] | B (ke is less than 0.1 and more than 0) |
| CC(C)c1cc(Cc2c(Cl)cc(OCC(=O)Nc3cccnc3)cc2Cl)ccc1O [Compound 114, 2-(3,5-dichloro-4-(4-hydroxy-3-isopropylbenzyl)phenoxy)-N-(pyridin-3-yl)acetamide] | A (ke is more than or equal to 0.1) |
| CC(C)c1cc(Cc2c(Cl)cc(OCC(=O)N(C)C)cc2Cl)ccc1O [Compound 19] | B (ke is less than 0.1 and more than 0) |
| CC(C)c1cc(Cc2c(Cl)cc(OCC(=O)NCC(F)(F)F)cc2Cl)ccc1O [Compound 16] | A (ke is more than or equal to 0.1) |
| CNC(=O)COc1cc(Cl)c(Cc2ccc(O)c(C(C)C)c2F)c(Cl)c1 [Compound 31] | A (ke is more than or equal to 0.1) |
| CC(C)c1cc(Cc2c(Cl)cc(OCC(=O)Nc3cccc(F)c3)cc2Cl)ccc1O [Compound 25] | A (ke is more than or equal to 0.1) |
| CC(C)c1cc(Cc2c(Cl)cc(OCC(=O)NN)cc2Cl)ccc1O [Compound 27] | A (ke is more than or equal to 0.1) |
| CC(C)NC(=O)COc1cc(Cl)c(Cc2ccc(O)c(C(C)C)c2)c(Cl)c1 [Compound 126, 2-(3,5-dichloro-4-(4-hydroxy-3-isopropylbenzyl)phenoxy)-N-isopropylacetamide] | A (ke is more than or equal to 0.1) |
| CC(C)c1cc(Cc2c(Cl)cc(OCC(=O)Nc3ccnnc3)cc2Cl)ccc1O [Compound 116, 2-(3,5-dichloro-4-(4-hydroxy-3-isopropylbenzyl)phenoxy)-N-(pyridazin-4-yl)acetamide] | A (ke is more than or equal to 0.1) |
| CC(C)c1cc(Cc2c(Cl)cc(OCC(=O)N3CCOCC3)cc2Cl)ccc1O [Compound 133, 2-(3,5-dichloro-4-(4-hydroxy-3-isopropylbenzyl)phenoxy)-1-morpholinoethan-1-one] | A (ke is more than or equal to 0.1) |
| CC(C)c1cc(Cc2c(Cl)cc(OCC(=O)N3CCCC3)cc2Cl)ccc1O [Compound 117, 2-(3,5-dichloro-4-(4-hydroxy-3-isopropylbenzyl)phenoxy)-1-(pyrrolidin-1-yl)ethan-1-one] | B (ke is less than 0.1 and more than 0) |
